Key:
Assay in all cases: relative viability (nuclei count vs DMSO), 5 days (fraction); higher = more cells survive
201T = tested on: 201T
Procedure, shortened: (§1)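 Lung cancer cell lines were pin-tool dosed in 1536-well plates on the day after seeding, with either a lone drug or a fixed anchor-drug dose plus five library-drug doses (not always all listed) in √10 steps. Nuclei were counted on 4× images after 5 days. Relative viability is the ratio of treated-well to vehicle-well nuclei counts, with each value a median of duplicate plates.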

ABC-1 = tested on: ABC-1
Procedure, shortened: as §1

CAL-12T = tested on: CAL-12T
Procedure, shortened: as §1

EMC-BAC-2 = tested on: EMC-BAC-2
Procedure, shortened: as §1

H3255 = tested on: H3255
Procedure, shortened: as §1

HOP-62 = tested on: HOP-62
Procedure, shortened: as §1

LK-2 = tested on: LK-2
Procedure, shortened: as §1

LXF-289 = tested on: LXF-289
Procedure, shortened: as §1

NCI-H1563 = tested on: NCI-H1563
Procedure, shortened: as §1

NCI-H1651 = tested on: NCI-H1651
Procedure, shortened: as §1

NCI-H1734 = tested on: NCI-H1734
Procedure, shortened: as §1

NCI-H1755 = tested on: NCI-H1755
Procedure, shortened: as §1

NCI-H2009 = tested on: NCI-H2009
Procedure, shortened: as §1

NCI-H2087 = tested on: NCI-H2087
Procedure, shortened: as §1

NCI-H2126 = tested on: NCI-H2126
Procedure, shortened: as §1

NCI-H2170 = tested on: NCI-H2170
Procedure, shortened: as §1

NCI-H322M = tested on: NCI-H322M
Procedure, shortened: as §1

NCI-H441 = tested on: NCI-H441
Procedure, shortened: as §1

NCI-H522 = tested on: NCI-H522
Procedure, shortened: as §1

NCI-H596 = tested on: NCI-H596
Procedure, shortened: as §1

NCI-H647 = tested on: NCI-H647
Procedure, shortened: as §1

SW 900 = tested on: SW 900
Procedure, shortened: as §1

In the case of `COCC1(CO)C(=O)C2CCN1CC2` (stereo not drawn) [PRIMA-1MET] + COc1cccc2cc(-c3nc([C@H]4CC[C@H](C(=O)O)CC4)n4ncnc(N)c34)[nH]c12 [OSI-027] (partner 0.5 µM), the relative viability (201T; first compound 0.2 µM) is reported as 0.82, the relative viability (201T; first compound 0.6325 µM) is reported as 0.702 and the relative viability (201T; first compound 2 µM) is reported as 0.591. It also gave a relative viability (201T; first compound 6.325 µM) of 0.759, a relative viability (201T; first compound 20 µM) of 0.747 and a relative viability (ABC-1; first compound 0.2 µM) of 0.37. For the same compound, the relative viability (ABC-1; first compound 0.6325 µM) was 0.401, the relative viability (ABC-1; first compound 2 µM) was 0.349 and the relative viability (ABC-1; first compound 6.325 µM) was 0.48. It also gave a relative viability (ABC-1; first compound 20 µM) of 0.0792, a relative viability (CAL-12T; first compound 0.2 µM) of 0.7 and a relative viability (CAL-12T; first compound 0.6325 µM) of 0.608. For the same compound, the relative viability (CAL-12T; first compound 2 µM) was 0.807, the relative viability (CAL-12T; first compound 6.325 µM) was 0.798 and the relative viability (CAL-12T; first compound 20 µM) was 0.106. The relative viability (EMC-BAC-2; first compound 0.2 µM) was 0.509, the relative viability (EMC-BAC-2; first compound 0.6325 µM) was 0.385 and the relative viability (EMC-BAC-2; first compound 6.325 µM) was 0.366. It also gave a relative viability (EMC-BAC-2; first compound 20 µM) of 0.322, a relative viability (H3255; first compound 0.2 µM) of 0.642 and a relative viability (H3255; first compound 0.6325 µM) of 0.629. For the same compound, the relative viability (H3255; first compound 2 µM) was 0.562, the relative viability (H3255; first compound 6.325 µM) was 0.658 and the relative viability (H3255; first compound 20 µM) was 0.498. For the same compound, the relative viability (HOP-62; first compound 0.2 µM) was 0.965, the relative viability (HOP-62; first compound 0.6325 µM) was 0.808 and the relative viability (HOP-62; first compound 2 µM) was 0.757. It also gave a relative viability (HOP-62; first compound 6.325 µM) of 0.88, a relative viability (HOP-62; first compound 20 µM) of 0.754 and a relative viability (LK-2; first compound 0.2 µM) of 0.201. For the same compound, the relative viability (LK-2; first compound 0.6325 µM) was 0.186, the relative viability (LK-2; first compound 2 µM) was 0.155 and the relative viability (LK-2; first compound 6.325 µM) was 0.149. For the same compound, the relative viability (LK-2; first compound 20 µM) was 0.118, the relative viability (LXF-289; first compound 0.2 µM) was 0.889 and the relative viability (LXF-289; first compound 0.6325 µM) was 0.803. It also gave a relative viability (LXF-289; first compound 2 µM) of 0.527, a relative viability (LXF-289; first compound 6.325 µM) of 0.874 and a relative viability (LXF-289; first compound 20 µM) of 0.759. For the same compound, the relative viability (NCI-H1563; first compound 0.2 µM) was 0.854, the relative viability (NCI-H1563; first compound 0.6325 µM) was 0.789 and the relative viability (NCI-H1563; first compound 2 µM) was 0.735. It also gave a relative viability (NCI-H1563; first compound 6.325 µM) of 0.744, a relative viability (NCI-H1563; first compound 20 µM) of 0.327 and a relative viability (NCI-H1651; first compound 0.2 µM) of 0.801. The relative viability (NCI-H1651; first compound 0.6325 µM) was 0.756, the relative viability (NCI-H1651; first compound 2 µM) was 0.636 and the relative viability (NCI-H1651; first compound 6.325 µM) was 0.669. For the same compound, the relative viability (NCI-H1651; first compound 20 µM) was 0.701, the relative viability (NCI-H1734; first compound 0.2 µM) was 0.709 and the relative viability (NCI-H1734; first compound 0.6325 µM) was 0.508. For the same compound, the relative viability (NCI-H1734; first compound 2 µM) was 0.413, the relative viability (NCI-H1734; first compound 6.325 µM) was 0.532 and the relative viability (NCI-H1734; first compound 20 µM) was 0.0554. The relative viability (NCI-H1755; first compound 0.2 µM) was 0.664, the relative viability (NCI-H1755; first compound 0.6325 µM) was 0.668 and the relative viability (NCI-H1755; first compound 2 µM) was 0.402. The relative viability (NCI-H1755; first compound 6.325 µM) was 0.682, the relative viability (NCI-H1755; first compound 20 µM) was 0.673 and the relative viability (NCI-H2009; first compound 0.2 µM) was 0.699. It also gave a relative viability (NCI-H2009; first compound 0.6325 µM) of 0.578, a relative viability (NCI-H2009; first compound 2 µM) of 0.643 and a relative viability (NCI-H2009; first compound 6.325 µM) of 0.67. The relative viability (NCI-H2009; first compound 20 µM) was 0.0063, the relative viability (NCI-H2087; first compound 0.2 µM) was 0.355 and the relative viability (NCI-H2087; first compound 0.6325 µM) was 0.481. The relative viability (NCI-H2087; first compound 2 µM) was 0.681, the relative viability (NCI-H2087; first compound 6.325 µM) was 0.433 and the relative viability (NCI-H2087; first compound 20 µM) was 0.262. For the same compound, the relative viability (NCI-H2126; first compound 0.2 µM) was 0.799, the relative viability (NCI-H2126; first compound 0.6325 µM) was 0.603 and the relative viability (NCI-H2126; first compound 2 µM) was 0.56. The relative viability (NCI-H2126; first compound 6.325 µM) was 0.728, the relative viability (NCI-H2126; first compound 20 µM) was 0.675 and the relative viability (NCI-H2170; first compound 0.2 µM) was 0.494. For the same compound, the relative viability (NCI-H2170; first compound 0.6325 µM) was 0.634, the relative viability (NCI-H2170; first compound 2 µM) was 0.722 and the relative viability (NCI-H2170; first compound 6.325 µM) was 0.718. For the same compound, the relative viability (NCI-H2170; first compound 20 µM) was 0.713, the relative viability (NCI-H322M; first compound 0.2 µM) was 0.494 and the relative viability (NCI-H322M; first compound 0.6325 µM) was 0.289. For the same compound, the relative viability (NCI-H322M; first compound 6.325 µM) was 0.57, the relative viability (NCI-H322M; first compound 20 µM) was 0.13 and the relative viability (NCI-H441; first compound 0.2 µM) was 0.593. It also gave a relative viability (NCI-H441; first compound 0.6325 µM) of 0.629, a relative viability (NCI-H441; first compound 2 µM) of 0.663 and a relative viability (NCI-H441; first compound 6.325 µM) of 0.611. For the same compound, the relative viability (NCI-H441; first compound 20 µM) was 0.313, the relative viability (NCI-H522; first compound 0.2 µM) was 0.647 and the relative viability (NCI-H522; first compound 0.6325 µM) was 0.671. It also gave a relative viability (NCI-H522; first compound 2 µM) of 0.596, a relative viability (NCI-H522; first compound 6.325 µM) of 0.836 and a relative viability (NCI-H522; first compound 20 µM) of 0.13. It also gave a relative viability (NCI-H596; first compound 0.2 µM) of 0.747, a relative viability (NCI-H596; first compound 0.6325 µM) of 0.635 and a relative viability (NCI-H596; first compound 2 µM) of 0.457. It also gave a relative viability (NCI-H596; first compound 6.325 µM) of 0.893, a relative viability (NCI-H596; first compound 20 µM) of 0.645 and a relative viability (NCI-H647; first compound 0.2 µM) of 0.684. For the same compound, the relative viability (NCI-H647; first compound 0.6325 µM) was 0.837, the relative viability (NCI-H647; first compound 2 µM) was 0.508 and the relative viability (NCI-H647; first compound 6.325 µM) was 0.56. It also gave a relative viability (NCI-H647; first compound 20 µM) of 0.105, a relative viability (SW 900; first compound 0.2 µM) of 0.54 and a relative viability (SW 900; first compound 0.6325 µM) of 0.451. For the same compound, the relative viability (SW 900; first compound 2 µM) was 0.471, the relative viability (SW 900; first compound 6.325 µM) was 0.362 and the relative viability (SW 900; first compound 20 µM) was 0.0628.
